{
  "source": "patent US11850237B2",
  "about": "“Compounds and methods for treating influenza” (priority 2009, dated 2023)",
  "key": {"H1N1 A/PR/8/34 (PR8)": {"test_system": "H1N1 A/PR/8/34 (PR8)", "test": "microbe, parasite or virus in culture", "assay_type": "cell-based, influenza A virus"}, "[1]": {"test": "Toxicity / cell viability by MTT in uninfected MDCK cells", "assay_type": "cell-based, canine", "details": "dog, uninfected MDCK cells; uninfected cells", "description": "(§1) Cell culture, treatment and transfection-Madin-Darby canine kidney (MDCK) cells, and human A549 alveolar type II-like epithelial, Jurkat Tlymphoblastoid and U397 monocytic leukemia cells were grown at 37° C. in a 5% CO2 atmosphere in RPMI 1640 (Invitrogen), supplemented with 10% fetal calf serum (FCS), 2 mM glutamine and antibiotics. Test compounds were added immediately after 1-hour adsorption period, and kept in the culture medium for the entire time of the experiment, unless differently specified. […] Cell viability was determined by the 3-(4,5-dimethylthiazol-2-yl)-2,5-diphenyltetrazolium bromide (MTT) to MTT formazan conversion assay (Sigma-Aldrich) as described previously. Microscopical examination of mock-infected or virus-infected cells was performed using a Leica DM-IL microscope and images were captured on a Leica DC 300 camera using Leica Image-Manager500 software."}, "MDCK cells [2]": {"test_system": "MDCK cells", "test": "Toxicity / cell viability by MTT in uninfected MDCK cells", "assay_type": "cell-based, canine", "details": "MDCK cells, MTT", "description": "as §1"}, "A/WSN/33 (WSN)": {"test_system": "A/WSN/33 (WSN)", "test": "microbe, parasite or virus in culture", "assay_type": "cell-based", "details": "Influenza A virus, MDCK, 24 h, read-out: EC50, inhibition of virus replication"}, "[3]": {"test_system": "H5N9 low-pathogenicity avian strain A/Ck/It/9097/97 (A/Ck)", "test": "microbe, parasite or virus in culture", "assay_type": "cell-based", "details": "Influenza A virus, H5N9, MDCK, 24 h, read-out: EC50, inhibition of virus replication"}, "[4]": {"test_system": "influenza A virus (PR8 in U937 and Jurkat, WSN in A549 cells)", "test": "Influenza A virus replication in human cells (U937, Jurkat, A549)", "assay_type": "cell-based", "details": "monocytic U937, T-lymphocytic Jurkat and alveolar type II-like A549 cells, read-out: EC50, inhibition of influenza A virus replication in human cells"}, "[5]": {"test_system": "H3N2 A/Firenze/7/03 (A/FI)", "assay_type": "cell-based, influenza A virus", "details": "MDCK cells, 10 μg/ml TIZ"}, "[6]": {"test_system": "influenza B virus, B/Parma/3/04", "assay_type": "cell-based", "details": "B/Parma/3/04 influenza B, MDCK cells, 10 μg/ml TIZ"}, "PR8 virus": {"test_system": "PR8 virus", "assay_type": "cell-based, influenza A virus"}, "[7]": {"molecular_target": "viral hemagglutinin (HA0) (Influenza A virus, UniProt P03452)", "sequence (P03452 18-565 limits assumed)": "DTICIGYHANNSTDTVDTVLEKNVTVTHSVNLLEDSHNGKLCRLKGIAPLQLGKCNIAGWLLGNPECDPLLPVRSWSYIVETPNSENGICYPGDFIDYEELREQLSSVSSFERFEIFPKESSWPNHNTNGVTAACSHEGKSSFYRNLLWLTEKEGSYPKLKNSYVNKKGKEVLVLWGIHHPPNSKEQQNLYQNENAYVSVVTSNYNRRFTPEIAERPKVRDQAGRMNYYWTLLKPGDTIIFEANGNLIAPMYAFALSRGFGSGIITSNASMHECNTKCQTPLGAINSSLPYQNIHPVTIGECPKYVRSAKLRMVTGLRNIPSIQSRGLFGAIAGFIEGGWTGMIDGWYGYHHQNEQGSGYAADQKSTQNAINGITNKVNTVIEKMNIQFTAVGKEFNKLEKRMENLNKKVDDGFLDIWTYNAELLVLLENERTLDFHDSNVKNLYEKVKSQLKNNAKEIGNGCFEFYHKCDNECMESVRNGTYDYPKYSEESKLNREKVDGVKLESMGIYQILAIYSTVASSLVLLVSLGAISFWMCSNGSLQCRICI", "assay_type": "cell-based"}, "[8]": {"test_system": "viral hemagglutinin (HA0)", "assay_type": "cell-based, influenza A virus"}, "MDCK cells [9]": {"test_system": "MDCK cells", "test": "Host protein synthesis, eIF2α phosphorylation and Grp78/BiP in MDCK cells", "assay_type": "cell-based, canine", "description": "Metabolic labeling, analysis of protein synthesis and Western Blot Mock-infected or influenza virus-infected cells were labeled with 10 μCi/ml of [35S]-methionine-cysteine ([35S]-Met/Cys, Redivue Pro-Mix 35S in vitro cell-labeling mix; GE Healthcare) for the indicated times after 30 min. starvation in methionine/cysteine-free medium. For pulse/chase experiments, cells were labeled [35S]-Met/Cys (100 μCi/ml) for 15 min., after 30 min. starvation in methionine/cysteine-free medium. At the end of pulse, cells were chased in complete medium containing 10 mM cold methionine and 1 mM cycloheximide for different times in the absence or presence of TIZ. The pulse/chase were terminated by placing the cells on ice. After cell lysis in RIPA buffer (150 mM NaCl, 10 mM Tris-HCl pH 7.5, 4 mM EDTA, 1% Triton X-100, 600 mM KCl), containing 1 mM phenylmethylsulphonyl fluoride (PMSF) and a protease inhibitor cocktail (PIC; Roche Diagnostics GmbH), samples containing the same amount of radioactivity were separated by SDS/PAGE (3% stacking gel, 10% resolving gel) and processed for autoradiography, as described. Autoradiographic patterns were visualized and quantified in Typhoon-8600 Imager (Molecular Dynamics, Amersham Pharmacia Biotech) and images were acquired using ImageQuant software (Amersham Pharmacia Biotech) (MDP analysis).\nFor Western blot analysis, cells were lysed with cold high-salt extraction (HSB) buffer containing 2 mM dithiothreitol (DTT), 1 mM PMSF, 1 mM orthovanadate, 20 mM β-glycerophosphate, 1 mM p-nitrophenyl phosphate (pNPP) and PIC, or with RIPA buffer, containing 1 mM PMSF and PIC. […] Quantitative evaluation of proteins was determined by Versadoc-1000 analysis using the Quantity One software program, available through BIO-RAD Laboratories."}, "[10]": {"test_system": "human low-density lipoprotein receptor (LDLR)", "test": "Plasma membrane targeting of LDLR in transfected MDCK cells", "assay_type": "cell-based", "details": "LDLR-A18-GFP transfected MDCK cells, TIZ 10 μg/ml for 16 h", "excerpt": "For transfection experiments, MDCK cells plated in LabTekII coverglass chambers (Nunch-Thermo Fisher Scientific Inc.) were transiently transfected with green fluorescent protein (GFP)-tagged internalization-defective human low-density lipoprotein receptor (hLDLR) mutant (LDLR-A18-GFP plasmid, kindly provided by E. Rodriguez-Boulan, Cornell University New York, NY), using Lipofectamine 2000 (Invitrogen) according to the manufacturer's instructions.\nFor detection of plasma membrane targeting of human low-density lipoprotein receptor (hLDLR), MDCK cells plated in coverglass chambers were transiently transfected with GFPtagged internalization-defective hLDLR mutant (LDLR-A18-GFP plasmid) and, after 8 h, treated with TIZ (10 μg/ml) or vehicle for the following 16 h. After blocking protein synthesis with 100 μg/ml cycloheximide (Sigma-Aldrich) for 1 h, plasma membranes were stained using CellMask™ Orange plasma membrane stain (Molecular Probes, Invitrogen). After staining, cells were examined using a Leica DM-IL fluorescence microscope equipped with UV excitation filters. The images were captured with a Leica DC-300 camera using Leica Image-Manager500 software."}},
  "note": "Like-named read-outs stand apart in the source and are kept apart here.",
  "data": [
    {"smiles": "O=C(Nc1ncc([N+](=O)[O-])s1)c1ccccc1O", "note": "[Compound 2, tizoxanide]", "values": [
      {"measurement": "effect on virus replication under multi- and single-step virus growth", "setting": "H1N1 A/PR/8/34 (PR8); H1N1 PR8, MDCK cells, 10 μg/ml TIZ, m.o.i. 10 or 0.001 ffu/cell", "value": "dramatic block"},
      {"measurement": "EC50", "setting": "H1N1 A/PR/8/34 (PR8); Influenza A virus, MDCK, 24 h, read-out: EC50, inhibition of virus replication", "value": 1, "unit": "µg/mL"},
      {"measurement": "EC50", "setting": "H1N1 A/PR/8/34 (PR8); Influenza A virus, PR8, MDCK cells, read-out: Virus Yield EC50", "value": 1, "unit": "µg/mL"},
      {"measurement": "EC90", "setting": "H1N1 A/PR/8/34 (PR8); Influenza A virus, PR8, MDCK cells, read-out: Virus Yield EC90", "value": 9, "unit": "µg/mL"},
      {"measurement": "antiviral activity against PR8, overall rating", "setting": "H1N1 A/PR/8/34 (PR8); PR8 influenza A virus, Table 1", "value": "potent and selective"},
      {"measurement": "CC50", "setting": "[1]", "value": "> 50", "unit": "µg/mL"},
      {"measurement": "Toxicity LD50 (MTT)", "setting": "MDCK cells [2]", "value": ">50", "unit": "µg/mL"},
      {"measurement": "EC50", "setting": "A/WSN/33 (WSN)", "value": 0.5, "unit": "µg/mL"},
      {"measurement": "EC50", "setting": "[3]", "value": 0.5, "unit": "µg/mL"},
      {"measurement": "EC50", "setting": "[4]", "value": 0.3, "unit": "µg/mL"},
      {"measurement": "inhibition of virus replication", "setting": "[5]", "value": "very effective"},
      {"measurement": "inhibition of virus replication", "setting": "[6]", "value": "very effective"},
      {"measurement": "effect on influenza virus replication", "setting": "PR8 virus", "value": "had no effect"},
      {"measurement": "time after infection for which a single administration inhibits virus replication", "setting": "PR8 virus; single administration after virus adsorption, 10 μg/ml, PR8, MDCK cells", "value": "at least 48 h"},
      {"measurement": "effect on virus replication", "setting": "PR8 virus; treatment of cells only during the adsorption period", "value": "did not inhibit virus replication"},
      {"measurement": "Endo-H sensitivity of HA0", "setting": "[7]", "value": "remained sensitive to digestion"},
      {"measurement": "HA0 glycosylation (glucosamine, mannose incorporation)", "setting": "[7]", "value": "did not decrease glucosamine and actually increased mannose incorporation"},
      {"measurement": "HA0 trimer formation", "setting": "[7]", "value": "did not prevent HA0 ability to form trimers"},
      {"measurement": "change in influenza virus protein synthesis pattern (HA0 band)", "setting": "[7]", "value": "disappearance of a band of approximately 79 kDa"},
      {"measurement": "intracellular HA0 levels / accumulation", "setting": "[7]", "value": "did not reduce intracellular HA0 levels"},
      {"measurement": "plasma membrane levels of viral hemagglutinin", "setting": "[7]", "value": "dramatically decreased"},
      {"measurement": "viral proteins in purified virions from supernatant", "setting": "[8]; PR8-infected cells, 24 h p.i.", "value": "could not be detected"},
      {"measurement": "HA0 maturation in other host cells and strains", "setting": "[8]; WSN in A549 cells, A/Ck and PR8 in MDCK cells", "value": "able to inhibit HA0 maturation"},
      {"measurement": "expression of Grp78/BiP (unfolded protein response marker)", "setting": "MDCK cells [9]; MDCK cells", "value": "did not induce the expression"},
      {"measurement": "host protein synthesis", "setting": "MDCK cells [9]; [35S]-Met/Cys incorporation, 10 μg/ml TIZ", "value": "did not inhibit host protein synthesis"},
      {"measurement": "phosphorylation of eukaryotic initiation factor 2α (eIF2-α)", "setting": "MDCK cells [9]; uninfected or PR8-infected cells", "value": "did not affect phosphorylation"},
      {"measurement": "plasma membrane targeting of LDLR", "setting": "[10]", "value": "did not inhibit plasma membrane targeting of LDLR"}
    ]}
  ]
}
